Assay results reported in patent publication US20260216138A1, “IDENTIFICATION OF OTUD7B INHIBITOR 7BI AND ITS APPLICATION IN REDUCING GROWTH OF NSCLC AND LEUKEMIA CELLS” (The University of North Carolina at Chapel Hill, priority 2023, published 2026).

Columns and labels:
[1] = system: NSCLC cells; assay: NSCLC cell growth; format: cell-based; conditions: read-out: IC50 values to suppress NSCLC cell growth
Method: (§1) 500 cells from OTUD7B depleted A549 cells were seeded into each well of 6-well plates and cultured in the 37° C. incubator with 5% CO2 for 10-15 days until formation of visible colonies. Triplicates were performed. To test the effect of a given inhibitor on colony formation ability, 800 cells from A549, H520 and H1299 cell lines were seeded into each well of 6-well plates, respectively. Each inhibitor was added at indicated concentration the next day. Colonies were counted after 10 days of treatment. The colony staining method was as described. […] Colony numbers were counted manually. […]
(§2) 2,000 cells from indicated NSLC cell lines were seeded into each well of 96-well plates. Cell viability was measured 3 days post-treatment using MTT assays following manufacturer's instruction. […] Inhibitor was added the next day at indicated concentration and cell viability was measured after 3-day treatment. For cell proliferation assays in THP1, K562 and HL60 cell lines, 1×10^6 cells from each indicated cell line were seeded in 12.5 cm2 cell culture flask and cells were counted by hemocytometer under microscope at indicated time to monitor cell proliferation. […] Inhibitor was added the next day at indicated concentrations and cell number was counted after 3 days treatment. […]

[2] = system: H520 cells; assay: Colony formation / growth of H520 cells; format: cell-based; conditions: treated once for 10 days
Method: as §1, §2

[3] = biological target: T1, USP21 (Homo sapiens, UniProt Q9UK80); assay: In vitro USP21 deubiquitination assay, K11-linked di-ub cleavage; format: biochemical; conditions: 80 nM USP21, 10 min
T1 construct: USP21 (residues 196-565); GST (N, cleaved yes); made in house; host or cells: E. coli BL21-Codon Plus (DE3)-RIL
T1 sequence (Q9UK80 196-565): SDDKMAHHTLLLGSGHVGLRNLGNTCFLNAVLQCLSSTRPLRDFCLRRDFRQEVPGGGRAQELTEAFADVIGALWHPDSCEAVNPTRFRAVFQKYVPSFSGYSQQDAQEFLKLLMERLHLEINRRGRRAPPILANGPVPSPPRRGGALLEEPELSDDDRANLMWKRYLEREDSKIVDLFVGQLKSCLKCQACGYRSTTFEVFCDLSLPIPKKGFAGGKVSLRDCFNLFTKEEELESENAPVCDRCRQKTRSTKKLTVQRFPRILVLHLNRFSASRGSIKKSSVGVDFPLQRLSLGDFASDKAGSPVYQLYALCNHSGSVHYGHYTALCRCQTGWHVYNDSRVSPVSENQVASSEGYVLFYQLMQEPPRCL
Description: OTUD7B (residues 56-446), OTUD7A (residues 1-462), USP21 (residues 196-565), and USP9X (residues 1551-1970) proteins were expressed in E. Coli BL21-Codon Plus (DE3)-RIL cells. Through an N-terminal GST tag, the DUBs were purified by affinity chromatography using glutathione sepharose 4B (GS4B) resin. Following the liberation of the DUB from the GST tag. the DUBs were subjected to size exclusion chromatography (SEC). To form the K11-linked di-ub, individual ubiquitins (K11R-substituted donor Ub and ΔGG acceptor ubiquitin) were purified and fluorescently-labeled on an N-terminal cysteine using either Cy3- (donor) or Cy5-maleimide (acceptor). The different ubiquitins were then added to a mixture containing UBA1, UBE2S, and MgATP to form di-ub. After an overnight incubation at room temperature, UBE2S was removed by cation-exchange chromatography and the di-ub was purified by SEC. These proteins were used to monitor DUB activity in the presence or absence of the various inhibitors. The inhibitors were incubated with DUBs in a reaction buffer (20 mM Hepes pH=8.0, 200 mM NaCl, 0.25 mg/mL BSA and 0.005% Tween-20) for 5 min at room temperature and then 0.5 uM fluorescently-labeled di-ub (K11-linked) was added to start the reaction. 5×SDS-PAGE loading buffer was used to quench the reaction at the indicated time point. […] Mono-ubiquitin was quantified to generate an IC50 value. […]

[4] = system: HL60 cells; assay: Leukemia cell proliferation, HL60; format: cell-based; conditions: 72 hrs
Method: 2,000 cells from indicated NSLC cell lines were seeded into each well of 96-well plates. Cell viability was measured 3 days post-treatment using MTT assays following manufacturer's instruction. For cell viability assays with inhibitor treatment, 2,000 cells from indicated NSLC and HEK293 cell lines were seeded in 96-well plate. Inhibitor was added the next day at indicated concentration and cell viability was measured after 3-day treatment. For cell proliferation assays in THP1, K562 and HL60 cell lines, 1×10^6 cells from each indicated cell line were seeded in 12.5 cm2 cell culture flask and cells were counted by hemocytometer under microscope at indicated time to monitor cell proliferation. To test inhibitor effects on THP1, K562 and HL60 cell growth, 2×10^5 cells were seeded in 12.5 cm2 cell culture flask. Inhibitor was added the next day at indicated concentrations and cell number was counted after 3 days treatment. Three independent experiments were performed to generate error bars.

inhibition of USP21 [3]: failed to inhibit
SMILES: Cc1cc(NC(=O)c2cnn(C)c2C(=O)Nc2cc(C)nn2C2CCCC2)n(C2CCCC2)n1 [7Bi]
IC50 [1]: ~2500 nM
cell growth [2]: reduced growth
cell proliferation [4]: reduced proliferation
